Experimental data published in patent publication US20240067632A1, “WEE1 Degrading Compounds and Uses Thereof” (Bristol-Myers Squibb Company, priority 2022, published 2024).

Columns and labels:
WEE1 = target: T1, WEE1 (Homo sapiens, UniProt P30291+Q96SW2); assay: WEE1-ePL degradation assay (LentiX-WEE1-ePL-GSPT1-ND cells, InCELL Hunter luminescence, 4 h); type: cell-based; settings: 293T-LentiX WEE1-ePL cells; for 293T-LentiX WEE1-ePL Degradation 4 hr (Ymin): lower limit of the fit (0 = luciferase inhibitor, Ymax = DMSO control); for DC50: read-out: 293T-LentiX WEE1-ePL Degradation 4 hr (EC50)
T1 construct: C-terminal ePL-tagged (DiscoverX, Fremont, CA) full-length WEE1 expression construct; expressed in transfected cells; host or cells: LentiX-HEK293T (Invitrogen), lentiviral transduction; co-expressing GSPT1-GN (G576N, lacking the first 158 amino acids)
Method in brief: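 Luminescent readout (InCELL Hunter, 30 min RT) of WEE1-ePL levels in transduced HEK293T cells after 4 h compound exposure at 37 °C. Dosing: 10 points, 3-fold steps, top 1 uM or 10 uM. EC50 from four-parameter logistic fit; Ymax set by DMSO.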

MKN45 cells = assay: MKN45 cell proliferation assay (Cell-Titer-Glo, 120 h); type: cell-based; settings: for EC50: Homo sapiens, MKN-45, 120 h, Cell-Titer-Glo, growth inhibition, read-out: MKN45 Cell Prolif. 120 hr (EC50); for MKN45 Cell Prolif. 120 hr (Ymin-Obs): minimal percent of DMSO control observed in the concentrations tested
Method in brief: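 Growth inhibition was read as blank-corrected Cell-Titer-Glo luminescence expressed as percent DMSO control after 120 h at 37 C, 400 cells/well. Compounds tested in triplicate as 10-point half-log series from 1 or 10 uM, 0.1% DMSO; four-parameter fit gave EC50, and lowest observed percent control was reported as Ymin-obs.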

| Compound | 293T-LentiX WEE1-ePL Degradation 4 hr (Ymin) (WEE1) | DC50 (WEE1) | EC50 (MKN45 cells) | MKN45 Cell Prolif. 120 hr (Ymin-Obs) (MKN45 cells) |
| --- | --- | --- | --- | --- |
| O=C1CCC(N2Cc3cc(O[C@H]4CCN(Cc5ccc6ccncc6c5)C4)ccc3C2=O)C(=O)N1 (stereo partly drawn) [3-(5-{[(3S)-1-[(isoquinolin-7-yl)methyl]pyrrolidin-3-yl]oxy}-1-oxo-2,3-dihydro-1H-isoindol-2-yl)piperidine-2,6-dione] | 46 | 21 nM | 290 nM | 54.45 |
| O=C1CCC(N2Cc3cc(O[C@H]4CCN(Cc5ccc6nc(C7(O)CCC7)ccc6c5)C4)ccc3C2=O)C(=O)N1 (stereo partly drawn) [3-(5-{[(3S)-1-{[2-(1-hydroxycyclobutyl)quinolin-6-yl]methyl}pyrrolidin-3-yl]oxy}-1-oxo-2,3-dihydro-1H-isoindol-2-yl)piperidine-2,6-dione] | 29.5 | 2.58 nM | 2.4 nM | 7.94 |
| COC1(c2ccc3cc(CN4CC[C@H](Oc5ccc6c(c5)CN(C5CCC(=O)NC5=O)C6=O)C4)ccc3n2)CCC1 (stereo partly drawn) [3-(5-{[(3S)-1-{[2-(1-methoxycyclobutyl)quinolin-6-yl]methyl}pyrrolidin-3-yl]oxy}-1-oxo-2,3-dihydro-1H-isoindol-2-yl)piperidine-2,6-dione] | 31 | 2.69 nM | 3.32 nM | 7.4 |
| CN1CC(c2ccc3cc(CN4CC[C@H](Oc5ccc6c(c5)CN(C5CCC(=O)NC5=O)C6=O)C4)ccc3n2)C1 (stereo partly drawn) [3-(5-{[(3S)-1-{[2-(1-methylazetidin-3-yl)quinolin-6-yl]methyl}pyrrolidin-3-yl]oxy}-1-oxo-2,3-dihydro-1H-isoindol-2-yl)piperidine-2,6-dione] | 32 | 100 nM | 93.4 nM | 11.97 |
| CN1CCC(c2ccc3cc(CN4CC[C@H](Oc5ccc6c(c5)CN(C5CCC(=O)NC5=O)C6=O)C4)ccc3n2)CC1 (stereo partly drawn) [3-(5-{[(3S)-1-{[2-(1-methylpiperidin-4-yl)quinolin-6-yl]methyl}pyrrolidin-3-yl]oxy}-1-oxo-2,3-dihydro-1H-isoindol-2-yl)piperidine-2,6-dione] | 30 | 28.6 nM | 21.7 nM | 7.273 |
| O=C1CCC(N2Cc3cc(O[C@H]4CCN(Cc5ccc6nc(CC(F)F)ccc6c5)C4)ccc3C2=O)C(=O)N1 (stereo partly drawn) [3-(5-{[(3S)-1-{[2-(2,2-difluoroethyl)quinolin-6-yl]methyl}pyrrolidin-3-yl]oxy}-1-oxo-2,3-dihydro-1H-isoindol-2-yl)piperidine-2,6-dione] | 43.5 | 33.4 nM | 350 nM | 21.74 |
| CC1(C)CN(c2ncc3cc(CN4CC[C@H](Oc5ccc6c(c5)CN(C5CCC(=O)NC5=O)C6=O)C4)ccc3n2)CCO1 (stereo partly drawn) [3-(5-{[(3S)-1-{[2-(2,2-dimethylmorpholin-4-yl)quinazolin-6-yl]methyl}pyrrolidin-3-yl]oxy}-1-oxo-2,3-dihydro-1H-isoindol-2-yl)piperidine-2,6-dione] | 31 | 11.6 nM | 7.67 nM | 9.381 |
| CC1(C)CN(c2ccc3cc(CN4CC[C@H](Oc5ccc6c(c5)CN(C5CCC(=O)NC5=O)C6=O)C4)ccc3n2)CCO1 (stereo partly drawn) [3-(5-{[(3S)-1-{[2-(2,2-dimethylmorpholin-4-yl)quinolin-6-yl]methyl}pyrrolidin-3-yl]oxy}-1-oxo-2,3-dihydro-1H-isoindol-2-yl)piperidine-2,6-dione] | 32 | 2.41 nM | 2.61 nM | 10.48 |
| CC1(C)CC(c2ccc3cc(CN4CC[C@H](Oc5ccc6c(c5)CN(C5CCC(=O)NC5=O)C6=O)C4)ccc3n2)CCO1 (stereo partly drawn) [3-(5-{[(3S)-1-{[2-(2,2-dimethyloxan-4-yl)quinolin-6-yl]methyl}pyrrolidin-3-yl]oxy}-1-oxo-2,3-dihydro-1H-isoindol-2-yl)piperidine-2,6-dione] | 29 | 2.56 nM | 2.14 nM | 7.959 |
